# Test results taken from PubChem BioAssay (NCI).
#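 Each compound was tested at five concentrations against cells in 96-well plates for 48 hours. TGI marks complete inhibition of growth.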
# Key:
# Test in all cases: inhibition of tumour cell growth, NCI panel, 48 h
# SK-MEL-5 melanoma = test system: SK-MEL-5 melanoma
# KM12 colon = test system: KM12 colon
# HCT-15 colon = test system: HCT-15 colon
# CCRF-CEM leukemia = test system: CCRF-CEM leukemia
# SN12C renal = test system: SN12C renal
# HCC-2998 colon = test system: HCC-2998 colon
# MDA-MB-231 breast = test system: MDA-MB-231 breast
# K-562 leukemia = test system: K-562 leukemia
# SK-OV-3 ovarian = test system: SK-OV-3 ovarian
# U251 CNS = test system: U251 CNS
# SF-295 CNS = test system: SF-295 CNS
# SK-MEL-2 melanoma = test system: SK-MEL-2 melanoma
# NCI-H522 lung = test system: NCI-H522 lung
# 786-0 renal = test system: 786-0 renal
# CAKI-1 renal = test system: CAKI-1 renal
# COLO 205 colon = test system: COLO 205 colon
# EKVX NSCLC = test system: EKVX NSCLC
# SK-MEL-28 melanoma = test system: SK-MEL-28 melanoma
# DU-145 prostate = test system: DU-145 prostate
# ACHN renal = test system: ACHN renal
# NCI-H23 lung = test system: NCI-H23 lung
# RPMI-8226 leukemia = test system: RPMI-8226 leukemia
# A549 NSCLC = test system: A549 NSCLC
# UO-31 renal = test system: UO-31 renal
# MDA-MB-435 = test system: MDA-MB-435
# HOP-92 NSCLC = test system: HOP-92 NSCLC
# LOX IMVI melanoma = test system: LOX IMVI melanoma
# HOP-62 NSCLC = test system: HOP-62 NSCLC
# SF-539 CNS = test system: SF-539 CNS
# SW-620 colon = test system: SW-620 colon
# TK-10 renal = test system: TK-10 renal
# SF-268 CNS = test system: SF-268 CNS
# MALME-3M melanoma = test system: MALME-3M melanoma
# HL-60(TB) leukemia = test system: HL-60(TB) leukemia
# HCT-116 colon = test system: HCT-116 colon
# SNB-19 CNS = test system: SNB-19 CNS
# NCI-H226 lung = test system: NCI-H226 lung
# IGROV1 ovarian = test system: IGROV1 ovarian
# UACC-257 melanoma = test system: UACC-257 melanoma
# T-47D breast = test system: T-47D breast
# SNB-75 CNS = test system: SNB-75 CNS
# MDA-N = test system: MDA-N
# M14 melanoma = test system: M14 melanoma
# NCI-H460 lung = test system: NCI-H460 lung
# HT29 colon = test system: HT29 colon
# HS 578T breast = test system: HS 578T breast
# RXF 393 renal = test system: RXF 393 renal
# NCI/ADR-RES ovarian = test system: NCI/ADR-RES ovarian
# A498 renal = test system: A498 renal
# OVCAR-4 ovarian = test system: OVCAR-4 ovarian
# MOLT-4 leukemia = test system: MOLT-4 leukemia
# UACC-62 melanoma = test system: UACC-62 melanoma
# OVCAR-5 ovarian = test system: OVCAR-5 ovarian
# MCF7 breast = test system: MCF7 breast
# SR leukemia = test system: SR leukemia
# PC-3 prostate = test system: PC-3 prostate
# OVCAR-8 ovarian = test system: OVCAR-8 ovarian
# OVCAR-3 ovarian = test system: OVCAR-3 ovarian
# BT-549 breast = test system: BT-549 breast
compound,measurement,setting,value
O=C(c1ccccc1)N1C(=S)N(c2ccccn2)C(=Nc2ccccc2)C1=Nc1ccccc1,TGI,SK-MEL-5 melanoma,> 50 µM
same,TGI,KM12 colon,19 µM
same,TGI,HCT-15 colon,14.9 µM
same,TGI,CCRF-CEM leukemia,> 24.7 µM
same,TGI,SN12C renal,> 100 µM
same,TGI,HCC-2998 colon,> 100 µM
same,TGI,MDA-MB-231 breast,> 71.9 µM
same,TGI,K-562 leukemia,> 60.9 µM
same,TGI,SK-OV-3 ovarian,> 86.6 µM
same,TGI,U251 CNS,39.6 µM
same,TGI,SF-295 CNS,> 73.8 µM
same,TGI,SK-MEL-2 melanoma,34.6 µM
same,TGI,NCI-H522 lung,5.61 µM
same,TGI,786-0 renal,> 82.8 µM
same,TGI,CAKI-1 renal,43.8 µM
same,TGI,COLO 205 colon,> 52.7 µM
same,TGI,EKVX NSCLC,> 100 µM
same,TGI,SK-MEL-28 melanoma,> 100 µM
same,TGI,DU-145 prostate,> 100 µM
same,TGI,ACHN renal,35.3 µM
same,TGI,NCI-H23 lung,> 36.5 µM
same,TGI,RPMI-8226 leukemia,31.1 µM
same,TGI,A549 NSCLC,> 100 µM
same,TGI,UO-31 renal,27.1 µM
same,TGI,MDA-MB-435,> 58 µM
same,TGI,HOP-92 NSCLC,20.8 µM
same,TGI,LOX IMVI melanoma,> 48.9 µM
same,TGI,HOP-62 NSCLC,> 84 µM
same,TGI,SF-539 CNS,44.9 µM
same,TGI,SW-620 colon,> 65.6 µM
same,TGI,TK-10 renal,88.2 µM
same,TGI,SF-268 CNS,> 100 µM
same,TGI,MALME-3M melanoma,53.4 µM
same,TGI,HL-60(TB) leukemia,14.1 µM
same,TGI,HCT-116 colon,> 77.3 µM
same,TGI,SNB-19 CNS,> 96.2 µM
same,TGI,NCI-H226 lung,> 100 µM
same,TGI,IGROV1 ovarian,> 64.1 µM
same,TGI,UACC-257 melanoma,> 74.6 µM
same,TGI,T-47D breast,> 62.1 µM
same,TGI,SNB-75 CNS,> 100 µM
same,TGI,MDA-N,> 50.7 µM
same,TGI,M14 melanoma,> 100 µM
same,TGI,NCI-H460 lung,> 70.6 µM
same,TGI,HT29 colon,> 100 µM
same,TGI,HS 578T breast,> 61.8 µM
same,TGI,RXF 393 renal,25.9 µM
same,TGI,NCI/ADR-RES ovarian,> 48.3 µM
same,TGI,A498 renal,> 100 µM
same,TGI,OVCAR-4 ovarian,32.5 µM
same,TGI,MOLT-4 leukemia,> 54.8 µM
same,TGI,UACC-62 melanoma,> 41.3 µM
same,TGI,OVCAR-5 ovarian,> 44.3 µM
same,TGI,MCF7 breast,> 100 µM
same,TGI,SR leukemia,> 63 µM
same,TGI,PC-3 prostate,35.8 µM
same,TGI,OVCAR-8 ovarian,> 100 µM
same,TGI,OVCAR-3 ovarian,45.6 µM
Cc1ccc(Nc2nc3c(=O)n(C)c(=O)n(C)c3nc2Nc2ccc(C)cc2)cc1,TGI,SK-MEL-5 melanoma,31 µM
same,TGI,KM12 colon,34.5 µM
same,TGI,HCT-15 colon,11.8 µM
same,TGI,CCRF-CEM leukemia,> 100 µM
same,TGI,SN12C renal,30.5 µM
same,TGI,HCC-2998 colon,35.1 µM
same,TGI,MDA-MB-231 breast,27.1 µM
same,TGI,K-562 leukemia,> 100 µM
same,TGI,SK-OV-3 ovarian,> 100 µM
same,TGI,U251 CNS,29.9 µM
same,TGI,SF-295 CNS,45.7 µM
same,TGI,SK-MEL-2 melanoma,33.5 µM
same,TGI,NCI-H522 lung,2.42 µM
same,TGI,786-0 renal,18.7 µM
same,TGI,CAKI-1 renal,30.4 µM
same,TGI,COLO 205 colon,16 µM
same,TGI,EKVX NSCLC,30 µM
same,TGI,SK-MEL-28 melanoma,30.8 µM
same,TGI,DU-145 prostate,> 100 µM
same,TGI,ACHN renal,11.8 µM
same,TGI,NCI-H23 lung,31.2 µM
same,TGI,RPMI-8226 leukemia,> 100 µM
same,TGI,A549 NSCLC,52.9 µM
same,TGI,UO-31 renal,24.4 µM
same,TGI,MDA-MB-435,25.1 µM
same,TGI,HOP-92 NSCLC,23.5 µM
same,TGI,LOX IMVI melanoma,22.6 µM
same,TGI,HOP-62 NSCLC,40.9 µM
same,TGI,SF-539 CNS,26.7 µM
same,TGI,SW-620 colon,4.04 µM
same,TGI,TK-10 renal,29.9 µM
same,TGI,SF-268 CNS,32.2 µM
same,TGI,MALME-3M melanoma,28.6 µM
same,TGI,HL-60(TB) leukemia,> 100 µM
same,TGI,HCT-116 colon,22.1 µM
same,TGI,SNB-19 CNS,> 100 µM
same,TGI,NCI-H226 lung,> 100 µM
same,TGI,IGROV1 ovarian,29.8 µM
same,TGI,UACC-257 melanoma,30.5 µM
same,TGI,T-47D breast,30.3 µM
same,TGI,SNB-75 CNS,35.2 µM
same,TGI,MDA-N,24.2 µM
same,TGI,NCI-H460 lung,> 100 µM
same,TGI,HT29 colon,23.4 µM
same,TGI,HS 578T breast,79.6 µM
same,TGI,RXF 393 renal,23.2 µM
same,TGI,NCI/ADR-RES ovarian,35.1 µM
same,TGI,A498 renal,40.2 µM
same,TGI,OVCAR-4 ovarian,23.9 µM
same,TGI,MOLT-4 leukemia,> 100 µM
same,TGI,UACC-62 melanoma,25 µM
same,TGI,OVCAR-5 ovarian,31.2 µM
same,TGI,SR leukemia,> 100 µM
same,TGI,PC-3 prostate,27.9 µM
same,TGI,OVCAR-8 ovarian,26.8 µM
Cn1c(N)nc(-c2ccc(Cl)cc2)c1SSc1c(-c2ccc(Cl)cc2)nc(N)n1C,TGI,SK-MEL-5 melanoma,3.2 µM
same,TGI,KM12 colon,3.46 µM
same,TGI,HCT-15 colon,3.44 µM
same,TGI,CCRF-CEM leukemia,5.05 µM
same,TGI,HCC-2998 colon,20.7 µM
same,TGI,MDA-MB-231 breast,2.88 µM
same,TGI,K-562 leukemia,6.2 µM
same,TGI,SK-OV-3 ovarian,27.4 µM
same,TGI,U251 CNS,4.19 µM
same,TGI,SF-295 CNS,21.4 µM
same,TGI,SK-MEL-2 melanoma,32.1 µM
same,TGI,NCI-H522 lung,3.62 µM
same,TGI,786-0 renal,3.43 µM
same,TGI,COLO 205 colon,3.81 µM
same,TGI,EKVX NSCLC,6.47 µM
same,TGI,SK-MEL-28 melanoma,3.76 µM
same,TGI,DU-145 prostate,25.4 µM
same,TGI,ACHN renal,5.14 µM
same,TGI,NCI-H23 lung,3.37 µM
same,TGI,RPMI-8226 leukemia,3.3 µM
same,TGI,A549 NSCLC,27.2 µM
same,TGI,UO-31 renal,3.24 µM
same,TGI,MDA-MB-435,3.54 µM
same,TGI,BT-549 breast,5.19 µM
same,TGI,HOP-92 NSCLC,3.7 µM
same,TGI,HOP-62 NSCLC,7.69 µM
same,TGI,SF-539 CNS,3.33 µM
same,TGI,SW-620 colon,4.03 µM
same,TGI,TK-10 renal,3.32 µM
same,TGI,SF-268 CNS,7.1 µM
same,TGI,MALME-3M melanoma,4.57 µM
same,TGI,HL-60(TB) leukemia,2.92 µM
same,TGI,HCT-116 colon,13.4 µM
same,TGI,SNB-19 CNS,27.8 µM
same,TGI,NCI-H226 lung,83.5 µM
same,TGI,IGROV1 ovarian,9.21 µM
same,TGI,UACC-257 melanoma,3.52 µM
same,TGI,T-47D breast,5.06 µM
same,TGI,SNB-75 CNS,20.8 µM
same,TGI,MDA-N,3.34 µM
same,TGI,M14 melanoma,3.78 µM
same,TGI,NCI-H460 lung,15.3 µM
same,TGI,HT29 colon,4.74 µM
same,TGI,HS 578T breast,> 100 µM
same,TGI,RXF 393 renal,5.47 µM
same,TGI,A498 renal,27.8 µM
same,TGI,OVCAR-4 ovarian,3.21 µM
same,TGI,MOLT-4 leukemia,> 100 µM
same,TGI,UACC-62 melanoma,5.03 µM
same,TGI,OVCAR-5 ovarian,3.26 µM
same,TGI,PC-3 prostate,3.38 µM
same,TGI,OVCAR-8 ovarian,5.81 µM
same,TGI,OVCAR-3 ovarian,3.54 µM
CNc1ccc(C(=O)CC(O)CCC(C)C2OC(=O)CC(O)CC(=O)CC(O)CC(O)CC(O)CC(O)CC3(O)CC(O)C(C(=O)NCCN4CCOCC4)C(CC(OC4OC(C)C(O)C(N)C4O)/C=C/C=C/C=C/C=C\C=C/C=C/C=C/C2C)O3)cc1 (configuration not stated),TGI,KM12 colon,> 100 µM
same,TGI,SK-MEL-2 melanoma,79.1 µM
same,TGI,786-0 renal,> 100 µM
same,TGI,MDA-MB-435,> 100 µM
same,TGI,HOP-92 NSCLC,> 100 µM
same,TGI,SF-539 CNS,> 100 µM
same,TGI,SW-620 colon,> 100 µM
same,TGI,HCT-116 colon,> 100 µM
same,TGI,SNB-19 CNS,> 100 µM
same,TGI,NCI-H226 lung,> 100 µM
same,TGI,IGROV1 ovarian,> 100 µM
same,TGI,UACC-257 melanoma,1.94 µM
same,TGI,T-47D breast,> 100 µM
same,TGI,SNB-75 CNS,> 100 µM
same,TGI,MDA-N,> 100 µM
same,TGI,RXF 393 renal,> 100 µM
same,TGI,A498 renal,0.8 µM
same,TGI,OVCAR-4 ovarian,> 100 µM
same,TGI,MOLT-4 leukemia,> 100 µM
same,TGI,UACC-62 melanoma,> 100 µM
same,TGI,OVCAR-8 ovarian,36.8 µM
